In paper PMC5589637, “New perspectives of cobalt tris(bipyridine) system: anti-cancer effect and its collateral sensitivity towards multidrug-resistant (MDR) cancers” (Oncotarget, 2017):

Legend:
[1] = test system: HeLa cancer cells; experiment: Western blot of autophagy markers; type: cell-based
Method: Western blot analysis was carried out following standard methods. Cells were lysed with RIPA lysis buffer with protease and phosphatase inhibitor cocktails. Protein concentrations were determined using the Bio-Rad protein assay (Bio-Rad Laboratories, Inc., Hercules, CA, USA). After electrophoresis, the proteins from SDS/PAGE were electro-transferred to a Hybond enhanced chemiluminescence nitrocellulose membrane (Amersham Biosciences, NJ, USA), which was then blocked with 5% dried milk for 1 hour. After washing, the blot was incubated with the indicated primary antibodies overnight at 4°C. Detection was performed using appropriated HRP-conjugated secondary antibodies for 1 hour at RT followed by chemiluminescence (Invitrogen).

[2] = test system: HCT-8 taxol-sensitive cancer cells; experiment: MTT cytotoxicity, taxol-sensitive HCT-8; type: cell-based; settings: 72 h
From the text: (§1) All cells were obtained from the American Type Culture Collection (Rockville, MD, USA) unless otherwise specified. Immortalized wild-type and Atg7-deficient mouse embryonic fibroblasts (MEFs) were kindly provided by Professor Masaaki Komatsu (Juntendo University, School of Medicine, Japan). Taxol-resistant types of MCF-7, HCT-8, A549 cancers cells and cisplatin-resistant SGC7901 cancer cells were purchased from KeyGEN BioTECH, China. Cisplatin-sensitive or –resistant A2780, OV2008 and C13 cancer cells were kindly provided by Prof. Benjamin Tsang (Department of Obstetrics and Gynecology and Department of Cellular and Molecular Medicine, University of Ottawa, Canada). HCT116 p53^+/+ and p53^−/− isogenic human colon cancer cells were kindly provided by Professor Bert Vogelstein (Ludwig Center at Johns Hopkins, Howard Hughes Medical Institute, USA). All media were supplemented with 10% fetal bovine serum and antibiotics penicillin (50 U/ml) and streptomycin (50 μg/ml; Invitrogen, Paisley, Scotland, UK). All cell cultures were incubated at 37°C in a 5% humidified CO2 incubator.
(§2) All tested compounds were dissolved in DMSO at a final concentration of 50 mmol/L and stored at −20°C before use. Cytotoxicity was assessed by using the 3-(4,5-dimethylthiazol-2-yl)-2, 5-diphenyltetrazolium bromide (MTT) (5.0 mg/ml) assay as previously described. Briefly, 4×10^3 cells per well were seeded in 96-well plates before drug treatments. After overnight culture, the cells were then exposed to different concentrations of selected compounds ([…]) for 72 hours. Cells without drug treatment were used as control. Subsequently, MTT (10 μL) solution was added to each well and incubated at 37°C for 4 hours followed by the addition of 100 μL solubilization buffer (10%SDS in 0.01 mol/L HCl) and overnight incubation. A570 nm was then determined in each well on the next day. The percentage of cell viability was calculated using the following formula: Cell viability (%) = Atreated/Acontrol × 100. Data were obtained from three independent experiments.

[3] = test system: HCT-8 taxol-resistant cancer cells; experiment: MTT cytotoxicity, taxol-resistant HCT-8; type: cell-based
From the text: as §1, §2

[4] = molecular target: P-gp ATPase (Homo sapiens, UniProt P08183); settings: 0–2 μM, verapamil (200 μM) stimulated, ATP, 1 h at 37°C
Method: The luminescence of the sample reflects the ATP level in the sample, which is negatively correlated with the activity of P-gp ATPase and was recorded using the SpectraMax Paradigm Multi-Mode Microplate Reader (Molecular Devices). DMSO-treated activities are expressed as the percentage of basal activity.

[5] = test system: C13 (cisplatin-resistant) cells; experiment: MTT cytotoxicity, C13 (cisplatin-resistant); type: cell-based
From the text: as §1, §2

[6] = test system: HeLa cancer cells; experiment: Flow cytometry cell-cycle analysis; type: cell-based; settings: 24 h, propidium iodide flow cytometry
From the text: Cobalt complex 2-treated cells were harvested and analysed by flow cytometry using propidium iodide staining (BD Biosciences, San Jose, CA, USA) according to the manufacturer instructions. Cell population in different phase of cell cycle were quantitatively counted by a flow cytometer (BD FACSAria III, San Jose, CA, USA).

[7] = test system: A2780 cisplatin-resistant cancer cells; experiment: MTT cytotoxicity, cisplatin-resistant A2780; type: cell-based
From the text: as §1, §2

[8] = test system: HCT116 p53^+/+ colon cancer cells; experiment: MTT cytotoxicity, HCT116 p53+/+; type: cell-based, human; settings: 72 h
From the text: as §1, §2

[9] = test system: SGC-7901 cisplatin-resistant cancer cells; experiment: MTT cytotoxicity, cisplatin-resistant SGC-7901; type: cell-based
From the text: as §1, §2

[10] = test system: MCF-7 taxol-resistant cancer cells; experiment: MTT cytotoxicity, taxol-resistant MCF-7; type: cell-based
From the text: as §1, §2

[11] = test system: HCT116 p53^-/- colon cancer cells; experiment: MTT cytotoxicity, HCT116 p53-/-; type: cell-based, human
From the text: as §1, §2

Chain of P-gp ATPase (P08183 whole entry): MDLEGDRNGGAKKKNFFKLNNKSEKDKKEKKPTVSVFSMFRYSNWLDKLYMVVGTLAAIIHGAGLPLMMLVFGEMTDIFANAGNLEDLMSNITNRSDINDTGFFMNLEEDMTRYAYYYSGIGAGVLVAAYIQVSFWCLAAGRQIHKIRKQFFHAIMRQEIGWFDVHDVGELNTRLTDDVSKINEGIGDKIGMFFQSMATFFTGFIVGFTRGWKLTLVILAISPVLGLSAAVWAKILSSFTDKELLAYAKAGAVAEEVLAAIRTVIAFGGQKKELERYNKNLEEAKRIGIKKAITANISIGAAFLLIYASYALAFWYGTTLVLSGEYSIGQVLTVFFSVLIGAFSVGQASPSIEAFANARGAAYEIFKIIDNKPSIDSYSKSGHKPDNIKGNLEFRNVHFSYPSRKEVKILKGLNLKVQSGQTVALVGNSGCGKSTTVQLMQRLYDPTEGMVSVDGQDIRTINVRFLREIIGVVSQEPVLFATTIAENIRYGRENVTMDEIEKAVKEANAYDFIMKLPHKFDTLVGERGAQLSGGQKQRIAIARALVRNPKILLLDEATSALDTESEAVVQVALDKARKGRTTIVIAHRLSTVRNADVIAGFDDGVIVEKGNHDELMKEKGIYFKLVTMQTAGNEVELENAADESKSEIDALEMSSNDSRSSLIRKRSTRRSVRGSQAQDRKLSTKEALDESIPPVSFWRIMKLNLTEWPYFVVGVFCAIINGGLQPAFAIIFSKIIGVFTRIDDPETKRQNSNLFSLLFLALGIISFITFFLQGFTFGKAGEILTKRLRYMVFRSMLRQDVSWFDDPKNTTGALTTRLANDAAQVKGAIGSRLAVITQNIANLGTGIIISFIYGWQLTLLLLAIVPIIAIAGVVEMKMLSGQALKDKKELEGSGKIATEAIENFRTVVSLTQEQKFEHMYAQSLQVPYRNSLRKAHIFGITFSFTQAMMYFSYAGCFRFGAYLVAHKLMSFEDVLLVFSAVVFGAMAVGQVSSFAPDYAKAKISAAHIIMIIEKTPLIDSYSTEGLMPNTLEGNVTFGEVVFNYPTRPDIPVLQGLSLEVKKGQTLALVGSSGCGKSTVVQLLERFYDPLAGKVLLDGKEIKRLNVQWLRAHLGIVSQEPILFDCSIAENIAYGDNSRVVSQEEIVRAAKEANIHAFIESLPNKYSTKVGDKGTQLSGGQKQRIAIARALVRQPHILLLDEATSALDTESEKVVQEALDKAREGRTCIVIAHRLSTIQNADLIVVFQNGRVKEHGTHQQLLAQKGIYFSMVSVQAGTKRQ

In the case of `Cc1ccnc(-c2cc(C)ccn2)c1.Cc1ccnc(-c2cc(C)ccn2)c1.Cc1ccnc(-c2cc(C)ccn2)c1.F[P-](F)(F)(F)(F)F.F[P-](F)(F)(F)(F)F.F[P-](F)(F)(F)(F)F.[Co+3]` [complex 2, [Co^III(4,4’-Me2-bpy)3](PF6)3], the “protein expression of p62 and P-p70S6K” value ([1]; 10μM and 15μM) is reported as “prominently reduced”, the LC3-II protein conversion ([1]; 24 h) is reported as “dose-dependently increased the LC3-II protein conversion” and the “expression of beclin-1 protein” value ([1]; 24 h, vs untreated control) is reported as “upregulated”. For the same compound, the IC50 [2] was 3.39 µM, the IC50 ([3]; HCT-8 taxol-resistant, MTT, 72 h) was 1.22 µM and the “Resistant Factor, HCT-8” value ([3]; IC50 of taxol-resistant cells over IC50 of taxol-sensitive cells, HCT-8) was 0.36. For the same compound, the “P-gp ATPase activity (change in luminescence)” value [4] was “dose-dependently inhibited the ATPase activity of P-gp”, the IC50 ([5]; C13 (cisplatin-resistant), MTT, 72 h, read-out: IC50 value, cisplatin-resistant cancer, C13) was 7.59 µM and the “Resistant Factor, OV2008/C13 pair” value ([5]; C13 (resistant) IC50 over OV2008 (sensitive) IC50) was 1.0. The “effect on cell cycle progression, high concentration” value ([6]; high concentration) was “arrest HeLa cancer cell in S-phase”, the “effect on cell cycle progression, low concentration” value ([6]; low concentration) was “negligible effect on cell cycle progression” and the IC50 ([7]; A2780 cisplatin-resistant, MTT, 72 h) was 10.7 µM. For the same compound, the “Resistant Factor, A2780” value ([7]; cisplatin-resistant over cisplatin-sensitive IC50, A2780) was 0.87, the IC50 [8] was 15.4 µM and the IC50 ([9]; SGC-7901 cisplatin-resistant, MTT, 72 h) was 12.6 µM. For the same compound, the “Resistant Factor, SGC-7901” value ([9]; cisplatin-resistant over cisplatin-sensitive IC50, SGC-7901) was 1.14, the “Resistant Factor, MCF-7” value ([10]; IC50 of taxol-resistant cells over IC50 of taxol-sensitive cells, MCF-7) was 0.68 and the IC50 ([10]; MCF-7 taxol-resistant, MTT, 72 h) was 2.71 µM. For the same compound, the IC50 ([11]; HCT116 p53-/-, MTT, 72 h) was 9.07 µM and the “Resistant Factor, HCT116 p53-/- vs p53+/+” value ([11]; IC50 p53-/- over IC50 p53+/+) was 0.59.
